{"source": "paper PMC10144323", "about": "“Preparation and Bioevaluation of a Novel ^99mTc-Labeled Glucose Derivative Containing Cyclohexane as a Promising Tumor Imaging Agent” (Pharmaceuticals, 2023)", "key": {"[1]": {"experiment": "In vitro stability in saline (radio-HPLC radiochemical purity)", "type": "physicochemical", "conditions": "4 h in saline at room temperature", "experimental": "(§1) The in vitro stability of the [^99mTc]Tc-CNMCHDG complex was determined by measuring its radiochemical purity. The labeled [^99mTc]Tc-CNMCHDG complex solution was placed in saline at room temperature for 4 h, and the radiochemical purity of the complex was calculated using radio-HPLC data to determine whether the complex had good stability at room temperature. Then, 100 μL of labeled solution (1.8 MBq) and 200 μL of mouse serum were added to a centrifuge tube, and the tube was placed in an incubator at 37 °C for 4 h. At the end of the incubation, 600 μL of an acetonitrile solvent was added to the centrifuge tube. Subsequently, the supernatant was filtered through a 0.22-μm filter and taken for HPLC analysis after centrifugation."}, "[2]": {"experiment": "In vitro stability in mouse serum (radio-HPLC radiochemical purity)", "type": "in vitro ADME", "conditions": "4 h in mouse serum at 37 °C", "experimental": "as §1"}, "[3]": {"experiment": "Determination of the partition coefficient (log P)", "type": "physicochemical", "conditions": "n-octanol / phosphate buffer (0.025 M, pH 7.4)", "experimental": "To determine the partition coefficient, 1.4 mL of phosphate buffer (0.025 M, pH 7.4) and 1.5 mL of n-octanol was taken into a 5 mL centrifuge tube, to which 0.1 mL of the [^99mTc]Tc-CNMCHDG solution (2.4 MBq) was added into the centrifuge tube in turn. The solution was then vortexed for 3 min and centrifuged for 3 min (3000 r/min). Then, 0.1 mL was removed from the two phases with a pipette gun, respectively, and the radioactive counts of the two phases were measured and used to calculate the partition coefficient P. The final partition coefficient was expressed as log P ± SD."}, "A549 tumor cells": {"system": "A549 tumor cells", "experiment": "In vitro cellular uptake studies", "type": "cell-based, Human", "conditions": "glucose-free DMEM, 1 h uptake", "experimental": "Human alveolar basal epithelial cells from lung cancer cells (A549 cells) were used in in vitro cellular uptake studies. A549 cells in the logarithmic growth phase were collected, prepared in a cell suspension of 3 × 10^5 cells/mL DMEM medium, and seeded into a 24-well plate (1 mL/well). The cells were evenly dispersed in the holes by vibration. Afterwards, the well plate was placed in a 37 °C incubator with 5% CO2 overnight to enable the cells to grow and stick to the bottom of the wells. After the cells were attached to the wells, the medium in the well plate was aspirated and washed with 0.5 mL of glucose-free DMEM medium, followed by the addition of 0.5 mL of glucose-free DMEM for glucose deprivation. One hour later, 0.1 mL of glucose-free medium, D-glucose (2 mg), L-glucose (2 mg) and insulin (2 IU) were added to the wells, respectively, and the cells were preincubated for 15 min. Subsequently, 0.1 mL of [^99mTc]Tc-CNMCHDG complex solution (0.74 MBq) was added to each well, and the volume of the solution in the wells was made up to 1 mL using the glucose-free DMEM. The well plates continued to be incubated in a 37 °C incubator, and after 1 h, the medium was aspirated and washed twice with 0.5 mL of cold PBS solution (0.067 M, pH 7.4). The cells were lysed by adding 0.5 mL of a sodium hydroxide solution (1 M). Finally, the solution was transferred to plastic test tubes, and the radioactivity counts were measured using a γ-counter detector. This procedure was carried out four times for each group."}, "A549 tumor-bearing mice [4]": {"system": "A549 tumor-bearing mice", "experiment": "Biodistribution in A549 tumor-bearing mice", "type": "in vivo, balb/c nude mice", "conditions": "for tumor uptake: i.v., n = 3", "experimental": "(§2) Animal studies were performed according to the Regulation on Laboratory Animals of the Beijing Municipality and the guidelines of the Ethics Committee of Beijing Normal University (permit no. BNUCC-EAW-2022-001). The A549 tumor-bearing model mice were developed by injecting 2 × 10^6 A549 cells in 0.1 mL of F-12k medium subcutaneously into the armpit of the right upper limb of balb/c nude mice. Similarly, the S180 tumor-bearing model mice were developed by subcutaneously injecting 1 × 10^6 S180 cells in 0.1 mL of saline into the right upper limb of female Kunming mice. The biodistribution of the tumor-bearing mice was determined when the tumor grew to approximately 5 mm after about two weeks of feeding. The A549 tumor mice were injected with 0.1 mL of the radiolabeled [^99mTc]Tc-CNMCHDG or [^99mTc]Tc-CN7DG solution (0.37 MBq) through the tail vein and sacrificed after 30 and 120 min post-injection (n = 3). In addition, to test whether the [^99mTc]Tc-CNMCHDG complex was involved in the glucose transporter mechanism, saline (0.1 mL), 2-deoxy-D-glucose (6 mg per mouse) and insulin (0.25 units per mouse) were injected into S180 tumor mice half an hour before administering the radiolabeled complex, and the mice were sacrificed at 60 min post-injection (n = 5). The organs and tissues of interest, such as heart, liver, lung, kidney, spleen, stomach, bone, intestine and tumor, were dissected, wiped and weighed. Finally, the radioactivity count in these organs and tissues was measured using a γ-counter detector, and the final results were expressed as the percent uptake of injected dose per gram ± the standard deviation (%ID/g ± SD)."}, "S180 tumor-bearing mice": {"system": "S180 tumor-bearing mice", "experiment": "Biodistribution in S180 tumor-bearing mice with pre-treatment (uptake mechanism)", "type": "in vivo, female Kunming mice", "experimental": "as §2"}, "A549 tumor-bearing mice [5]": {"system": "A549 tumor-bearing mice", "experiment": "SPECT/CT imaging studies", "type": "in vivo", "experimental": "The radiolabeled [^99mTc]Tc-CNMCHDG solution (18.5 MBq) was injected into the A549 tumor-bearing mice via the tail vein, and the SPECT imaging study was performed at 2 h post-injection. In the same tumor mice, at the end of radioactive metabolism, the [^99mTc]Tc-CN7DG solution (18.5 MBq) was injected similarly into the same mice through the tail vein. The mice were anesthetized with 1.5% isoflurane and placed on a SPECT/CT scanner for imaging. The imaging scan settings were as follows: CT scan (512 views, 2 × 2 binding, 75 kV) for 15 min, followed by SPECT acquisition (Peak 140 keV, 20% width, 90° rotation, MMP 919 collimator) after 4 min. HiSPECT software and Vivoquant 2.5 software (Trifoil imaging, CA, USA) were used to acquire the SPECT/CT images (n = 3)."}, "[6]": {"experiment": "Pharmacokinetic characteristics (blood time-activity)", "type": "in vivo", "conditions": "healthy Kunming female mice", "experimental": "Drug and Statistics (DAS) 3.2.8 software was used to calculate the pharmacokinetic parameters and to study the relationship between drug concentration and time based on the results. Time-activity curve of blood of [^99mTc]Tc-CNMCHDG in healthy kunming female mice was shown in Figure 6 and major pharmacokinetics parameters are listed in Table 1. […] In addition, the blood intake values were all lower than 0.1%ID/g at 90 min post-injection. According to the calculation results of the DAS 3.2.8 software, the distribution of [^99mTc]Tc-CNMCHDG in the blood was in accordance with the three-compartment mode.\nForty Kunming female mice were divided into eight groups and injected with 0.1 mL of [^99mTc]Tc-CNMCHDG (0.37 MBq) via tail vein, and were sacrificed at 2, 5, 10, 30, 60, 90, 120 and 240 min after injection, respectively. The blood samples were collected, weighed and counted a γ-counter detector to calculate the%ID/g value. The blood uptake-time curves were generated and analyzed by DAS 3.2.8 software."}, "[7]": {"conditions": "S180 tumor-bearing mice, 60 min post-injection"}, "[8]": {"conditions": "blood, three-compartmental modeling (DAS 3.2.8), i.v."}, "[9]": {"conditions": "blood, three-compartmental modeling, i.v."}}, "note": "Like-named read-outs stand apart in the source and are kept apart here."}
{"smiles": "O=C(NC1C(O)OC(CO)C(O)C1O)C1CCC(C[N+]#[C][99Tc+]([C]#[N+]CC2CCC(C(=O)NC3C(O)OC(CO)C(O)C3O)CC2)([C]#[N+]CC2CCC(C(=O)NC3C(O)OC(CO)C(O)C3O)CC2)([C]#[N+]CC2CCC(C(=O)NC3C(O)OC(CO)C(O)C3O)CC2)([C]#[N+]CC2CCC(C(=O)NC3C(O)OC(CO)C(O)C3O)CC2)[C]#[N+]CC2CCC(C(=O)NC3C(O)OC(CO)C(O)C3O)CC2)CC1", "note": "(centres unmarked) [[^99mTc]Tc-CNMCHDG]", "values": [{"measurement": "radiochemical purity after incubation", "setting": "[1]", "result": "higher than 90%"}, {"measurement": "radiochemical purity after incubation", "setting": "[2]", "result": "higher than 90%"}, {"measurement": "partition coefficient (log P)", "setting": "[3]", "result": "−3.65 ± 0.10"}, {"measurement": "inhibition of cellular uptake by D-glucose", "setting": "A549 tumor cells; D-glucose (2 mg) preincubated 15 min, p = 0.009", "result": 29, "unit": "%"}, {"measurement": "change of cellular uptake by L-glucose", "setting": "A549 tumor cells; L-glucose (2 mg) preincubated 15 min", "result": "not significantly changed"}, {"measurement": "increase of cellular uptake after insulin", "setting": "A549 tumor cells; insulin (2 IU) preincubated 15 min, p = 0.002", "result": 57, "unit": "%"}, {"measurement": "kidney uptake", "setting": "A549 tumor-bearing mice [4]; 30 min post-injection", "result": "6.54 ± 1.10", "unit": "%ID/g"}, {"measurement": "liver uptake", "setting": "A549 tumor-bearing mice [4]; 30 min post-injection", "result": "2.74 ± 0.31", "unit": "%ID/g"}, {"measurement": "lung uptake", "setting": "A549 tumor-bearing mice [4]; 30 min post-injection", "result": "1.98 ± 0.31", "unit": "%ID/g"}, {"measurement": "tumor uptake", "setting": "A549 tumor-bearing mice [4]; 30 min post-injection", "result": "5.40 ± 0.29", "unit": "%ID/g"}, {"measurement": "tumor uptake compared to [^99mTc]Tc-CN7DG", "setting": "A549 tumor-bearing mice [4]; 120 min post-injection", "result": "slightly lower"}, {"measurement": "tumor/liver ratio", "setting": "A549 tumor-bearing mice [4]; 120 min post-injection", "result": "3.24 ± 0.25"}, {"measurement": "tumor/lung ratio", "setting": "A549 tumor-bearing mice [4]; 120 min post-injection", "result": "5.41 ± 0.39"}, {"measurement": "uptake in non-target organs such as liver and lung compared to [^99mTc]Tc-CN7DG", "setting": "A549 tumor-bearing mice [4]; 120 min post-injection", "result": "significantly lower"}, {"measurement": "tumor uptake", "setting": "A549 tumor-bearing mice [4]; 120 min post-injection", "result": "4.42 ± 0.36", "unit": "%ID/g"}, {"measurement": "tumor uptake", "setting": "S180 tumor-bearing mice", "result": "6.30 ± 0.56", "unit": "%ID/g"}, {"measurement": "decrease of tumor uptake by D-glucose pre-treatment", "setting": "S180 tumor-bearing mice; [7]", "result": 43, "unit": "%"}, {"measurement": "increase of tumor uptake by insulin pre-treatment", "setting": "S180 tumor-bearing mice; [7]", "result": 35, "unit": "%"}, {"measurement": "tumor uptake", "setting": "S180 tumor-bearing mice; S180 tumor-bearing mice, 60 min post-injection, pre-treatment with D-glucose, n = 5", "result": "2.64 ± 0.48", "unit": "%ID/g"}, {"measurement": "tumor uptake", "setting": "S180 tumor-bearing mice; S180 tumor-bearing mice, 60 min post-injection, saline pre-treatment (control), n = 5", "result": "4.66 ± 0.34", "unit": "%ID/g"}, {"measurement": "route of metabolism/excretion in vivo (SPECT/CT signals in bladder and kidney)", "setting": "A549 tumor-bearing mice [5]; A549 tumor-bearing mouse, 2 h after administration", "result": "mainly metabolized through the urine system"}, {"measurement": "visualization of the tumor by SPECT/CT", "setting": "A549 tumor-bearing mice [5]; A549 tumor-bearing mouse, 2 h after administration, 18.5 MBq i.v.", "result": "clearly visualized"}, {"measurement": "SPECT/CT uptake in non-target areas (liver and kidney) compared to [^99mTc]Tc-CN7DG", "setting": "A549 tumor-bearing mice [5]; same A549 tumor-bearing mouse, 2 h post-injection", "result": "significantly lower"}, {"measurement": "AUC(0-t)", "setting": "[6]; [8]", "result": 298.528, "unit": "%ID/g × min"}, {"measurement": "AUC(0-∞)", "setting": "[6]; [8]", "result": 353.484, "unit": "%ID/g × min"}, {"measurement": "t1/2α (blood distribution half-life)", "setting": "[6]; [9]", "result": 0.598, "unit": "min"}, {"measurement": "t1/2β (elimination half-life, fast chamber)", "setting": "[6]; [9]", "result": 10.706, "unit": "min"}, {"measurement": "t1/2γ (elimination half-life, slow chamber)", "setting": "[6]; [9]", "result": 218.932, "unit": "min"}, {"measurement": "blood uptake value", "setting": "[6]; 2 min post-injection, i.v., n = 5", "result": "21.22 ± 2.00", "unit": "%ID/g"}, {"measurement": "blood uptake value", "setting": "[6]; 30 min post-injection", "result": "1.50 ± 0.15", "unit": "%ID/g"}, {"measurement": "blood uptake value", "setting": "[6]; 60 min post-injection", "result": "0.37 ± 0.16", "unit": "%ID/g"}, {"measurement": "blood intake values", "setting": "[6]; at 90 min post-injection", "result": "lower than 0.1 %ID/g"}]}
